# Results published in patent US10626126B2, “Compounds” (Pulmocide Limited, priority 2016, dated 2020).
# Entries after “also recorded” stand apart in the source; their conditions may differ.
# Assays:
# RSV A2 strain = experiment: RSV A2 induced CPE in HEp2 cells; type: cell-based; conditions: human respiratory syncytial virus; for IC50: HEp-2, 120 h, 5 days; for inhibition at 0.01 µg/mL: HEp-2, at 0.01 μg/mL
# Description: (§1) HEp2 cells were seeded (10^3/well/50 μL) in 384-well plates (Catalogue number 353962, BD Falcon, Oxford, UK) in 5% FBS-DMEM (containing 2 mM L-glutamine and 1 mM sodium pyruvate) one day before infection. […] Simultaneously, test compounds (0.5 μL DMSO solution) were added to 100 μL of HEp2 cell culture with virus solution to provide a final DMSO solution of 0.5%. […] Sigma-Aldrich, Dorset, UK) was added to each well and the plate incubated for a further 6 hr (37° C./5% CO2). The fluorescence of each well [545 nm (excitation)/590 nm (emission)] was determined using a multi-scanner (Clariostar: BMG, Buckinghamshire, UK). The percentage inhibition for each well was calculated and the IC50, IC75 and IC90 values were calculated from the concentration-response curve generated for each test compound.
# RSV B Washington strain = experiment: RSV B induced CPE in HEp2 cells; type: cell-based; conditions: human respiratory syncytial virus; for IC50: HEp-2, 144 h, 6 days; for inhibition at 1 µg/mL: HEp-2, at 1 μg/mL
# Description: as §1
# [1] = Cell viability: resazurin assay; type: cell-based; conditions: human, HEp2 cells
# Description: HEp2 cells were seeded in 384-well plates (10^3/well/50 μL; BD Falcon Ref 353962) in FBS DMEM (5%, containing 2 mM L-glutamine and 1 mM sodium pyruvate) one day before experimentation. Serum-free DMEM (50 μL) was added to test wells, while for control wells the media was removed and sterile water (100 μL) added. Test compounds (0.5 μL DMSO solution) were added to give a final DMSO concentration of 0.5%. HEp2 cells were incubated with each test compound for 5 days (37° C./5% CO2 in 2.5% FBS) and then resazurin stock solution (5 μL; 0.03%) was added to each well and the plate incubated for a further 6 hr (37° C./5% CO2). The fluorescence of each well at 545 nm (excitation) and 590 nm (emission) was determined using a multi-scanner (Clariostar: BMG Labtech). The percentage loss of cell viability was calculated for each well relative to vehicle (0.5% DMSO) treatment. Note that any apparent increase in cell viability associated with test compound treatment relative to vehicle is consequently tabulated as a negative percentage. Where appropriate, a CC50 value was calculated from the concentration-response curve generated from the concentration-response curve for each test compound.
# RSV A2 [2] = experiment: RSV F protein expression in BEAS2B bronchial epithelial cells; type: cell-based; conditions: human respiratory syncytial virus, BEAS-2B, n=2
# Description: An early event which follows the infection of epithelial cells by RSV is the expression of RSV F-protein on the cells' surface. BEAS2B cells were grown in 96 well plates. […] Supernatant was aspirated and the cells were fixed with 4% formaldehyde (100 μL in PBS solution) for 20 min, washed 3 times with washing buffer (200 μL; PBS containing 0.05% Tween-20) and incubated with blocking solution (100 μL; 5% BSA in washing buffer) for 1 hr. […] No. ab43812, Abcam plc, Cambridge, UK) F-fusion protein antibody (50 μL; prepared at a 1:2000 dilution in 5% BSA/washing buffer). After washing, cells were incubated with an HRP-conjugated anti-mouse IgG antibody (50 μL prepared at a 1:2000 dilution in 5% BSA in PBS; lot 00095437, Cat. No. P0447, Dako UK Ltd, Cambridgeshire, UK) for 1 hr. […] The resultant signal was determined colourimetrically (OD: 450 nm with a reference wavelength of 655 nm) in a microplate reader (Multiskan FC®, ThermoFisher Scientific). […] After washing with PBS (200 μL) 2 times, 1% SDS (100 μL) was added to each well, and plates were shaken lightly for 1 hr prior to reading the absorbance at 595 nm. The measured OD450-655 readings were corrected for cell number by dividing the OD450-655 by the OD595 readings. The percentage inhibition for each well was calculated and the IC50 value derived from the concentration-response curve generated for each test compound.
# RSV NS-1 gene = experiment: RSV infection in cotton rats: RSV NS-1 gene expression in lung (qRT-PCR); type: in vivo, Sigmodon hispidus cotton rats; conditions: intranasal
# hRSV/A/Long = experiment: RSV infection in cotton rats: viral titre in lung (plaque assay); conditions: for Virus titre in lung, Geometric Mean / Virus titre in lung, Median: day 4 post infection
# Description: (§2) Male Sigmodon hispidus cotton rats between 6 and 8 weeks of age were infected with hRSV/A/Long (ATCC, Manassas, Va.; 10^5 pfu) in a volume of 0.1 mL of sucrose stabilizing media. Test compounds were dissolved in 100% DMSO (at 3.3, 10, 33 and 100 mg/mL), then diluted (1:10 in isotonic saline to achieve 10% DMSO in all treatments) and sonicated to produce suspensions which were administered intranasally (50 μL) by pipette 4 hr before infection (on day 0), and then on days 1, 2 and 3 post infection. Four days after RSV challenge, the animals were euthanised and the lungs removed.
# The supernatants of lung homogenates were diluted 1:10 and 1:100 in Eagle (E)-MEM. Confluent HEp2 monolayers in 24-well plates were infected in duplicate (50 μL of sample per well) starting with undiluted (neat) samples followed by diluted homogenates. After incubation for 1 hr (37° C./5% CO2) wells were overlaid with 0.75% methylcellulose medium and plates replaced in the 37° C. incubator. After incubation (for 4 days), the overlay was removed, the cells fixed with 0.1% crystal violet stain (for 1 hr) and then rinsed and air-dried. Plaques were counted and viral titers were expressed as plaque forming units per gram (pfu.g^−1) of tissue.
# RANTES gene = experiment: RSV infection in cotton rats: RANTES gene expression in lung (qRT-PCR); conditions: intranasal
# Description: as §2
# Total RNA was also extracted from homogenized lung tissue (RNeasy purification kit; Qiagen) and a sample (1 μg) used to prepare cDNA using QuantiTect Reverse Transcription Kit (Qiagen). For real-time PCR reactions (RSV NS-1 and RANTES genes) the QuantiFast SYBR® Green PCR Kit (Qiagen) was used in a final volume of 25 μL, with final primer concentrations of 0.5 μM. Amplifications were performed on a Bio-Rad iCycler for 1 cycle of 950C for 3 min, followed by 40 cycles of 950C for 10 sec, 600C for 10 sec, and 720C for 15 sec. Baseline cycles and cycle threshold (Ct) were calculated by the iQ5 software in the PCR Base Line Subtracted Curve Fit mode.
# The standard curves were developed using the serially diluted cDNA sample most enriched in the transcript of interest (e.g., lungs from day 4 post-primary RSV infection). The Ct values were plotted against log10 cDNA dilution factor and the curves were used to convert the Ct values obtained for different samples to relative expression units, which were then normalized against the level of R-actin mRNA (“housekeeping gene”) expressed in the corresponding sample. The mRNA levels were expressed as the geometric mean±SEM for all animals in a group.
# RSV A2 [3] = experiment: Virus titre in air-liquid interface (ALI) cultured bronchial epithelial cells; conditions: for Virus titre in apical wash, geometric mean: late intervention (days 3-7), 0.1 mg/mL; for inhibition of virus titre in ALI culture (in words): late stage intervention
# Description: ALI cultured human bronchial epithelial cells were sourced from Epithelix Sarl (Geneva, Switzerland) and maintained by changing the basal media every 3-4 days, whilst the apical surface was washed once weekly with PBS. On day 0, the apical surface of each well was washed once with sterile PBS (300 μL) and the inserts transferred to new 24-well plates containing fresh MucilAir culture medium (780 μL; EP04MM). RSV A2 (50 μL; diluted in MucilAir culture medium to give a final MOI of 0.01) was added to cells for one hr (37° C./5% CO2). For the purposes of standardizing MOI calculations, each MucilAir insert was estimated to contain 2×10^5 apical facing cells per well. Virus inoculum was removed with a pipette and inserts were washed twice with sterile PBS (300 μL).
# Sampling was conducted by adding sterile PBS (300 μL) to the apical surface of each well for 5 min. The apical sample was then removed and transferred to tubes containing 50% sucrose dissolved in PBS (100 μL) before being stored at −80° C. This harvesting procedure was repeated daily beginning on day 0 and concluding on day 10.
# The test compound (50 μL in 0.5% DMSO/PBS) was added to the apical surface and incubated (37° C./5% CO2) for 1 hr before being removed. Vehicle treatments (0.5% DMSO/PBS) were performed on the corresponding apical surfaces to ensure each well received the same number of manipulations. On day 5, the basal media was removed from each well and replenished with fresh MucilAir culture media as a necessary maintenance step for ALI culture cells.
# Virus titre was quantified by plaque assay. HEp2 cells were grown in 24-well plates (Corning) for 48 hr prior to infection in DMEM containing 10% FBS until they attained 100% confluency.
# Collected samples were thawed at RT and ten-fold serial dilutions were prepared in serum-free DMEM. The growth medium from HEp2 cells was aspirated and replaced with 300 μL of serially diluted virus collections and left to infect at 37° C./5% CO2 for 4 hr. The infectious media was aspirated and replaced with 1 mL Plaque Assay Overlay (0.3% Avicel RC-591 (FMC Biopolymer UK, Girvan, Scotland)) in MEM, supplemented to a final concentration of 2% FCS), and left for 7 days at 37° C./5% CO2. Cells were fixed with ice-cold methanol for 10 min, then removed and cells subjected to two washes with sterile PBS. Cells were then stained with crystal violet solution (200 μL 0.1%, in distilled water) for 1 hr. Crystal violet solution was removed and cells rinsed with water before plaques were counted and virus titre enumerated.
smiles,measurement,setting,value
"Cc1cnc(N2CC3(CCOCC3)C2)c(C(=O)Nc2ccc(C(=O)N3CCc4cc(C(=O)Nc5c(F)cccc5F)sc4-c4sccc43)cc2)c1 [Example 1, N-(2,6-Difluorophenyl)-4-(4-(5-methyl-2-(7-oxa-2-azaspiro[3.5]nonan-2-yl)nicotinamido)benzoyl)-5,6-dihydro-4H-dithieno[3,2-b:2′,3′-d]azepine-8-carboxamide]",IC50,RSV A2 strain,0.11 nM
same,inhibition at 0.01 µg/mL,RSV A2 strain,100%
same,IC50,RSV B Washington strain,9 nM
same,inhibition at 0.1 µg/mL,"RSV B Washington strain; HEp-2, at 0.1 μg/mL",100%
same,CC50 at 5 days,[1],> 13800 nM
same,IC50,RSV A2 [2],0.021 nM
same,IC90,RSV A2 [2],0.078 nM
same,inhibition of RSV NS-1 gene transcripts (in words),RSV NS-1 gene,dose-dependent inhibition
same,RSV NS1 gene transcript % inhibition,RSV NS-1 gene; 0.33 mg/mL,−42%
same,"RSV NS1 gene transcript (/β-actin), Median",RSV NS-1 gene; 0.33 mg/mL,4.4
same,RSV NS1 gene transcript % inhibition,RSV NS-1 gene; 1.0 mg/mL,39%
same,"RSV NS1 gene transcript (/β-actin), Median",RSV NS-1 gene; 1.0 mg/mL,1.9
same,RSV NS1 gene transcript % inhibition,RSV NS-1 gene; 3.3 mg/mL,48%
same,"RSV NS1 gene transcript (/β-actin), Median",RSV NS-1 gene; 3.3 mg/mL,1.6
same,RSV NS1 gene transcript % inhibition,RSV NS-1 gene; 10 mg/mL,68%
same,"RSV NS1 gene transcript (/β-actin), Median",RSV NS-1 gene; 10 mg/mL,1.0
same,"Virus titre in lung, Geometric Mean","hRSV/A/Long; intranasal, 0.1 mg/mL","5.4 log, PFU/lung"
same,"Virus titre in lung, Median","hRSV/A/Long; intranasal, 0.1 mg/mL","5.4 log, PFU/lung"
same,"Virus titre in lung, Geometric Mean","hRSV/A/Long; intranasal, 0.33 mg/mL","5.0 log, PFU/lung"
same,"Virus titre in lung, Median","hRSV/A/Long; intranasal, 0.33 mg/mL","5.0 log, PFU/lung"
same,"Virus titre in lung, Geometric Mean","hRSV/A/Long; intranasal, 1.0 mg/mL","4.3 log, PFU/lung"
same,"Virus titre in lung, Median","hRSV/A/Long; intranasal, 1.0 mg/mL","4.3 log, PFU/lung"
same,"Virus titre in lung, Geometric Mean","hRSV/A/Long; intranasal, 3.3 mg/mL","<2.3^2 log, PFU/lung"
same,"Virus titre in lung, Median","hRSV/A/Long; intranasal, 3.3 mg/mL","<2.3 log, PFU/lung"
same,inhibition of viral titre in lung homogenates (in words),"hRSV/A/Long; intranasal, RSV/A/Long infected cotton rats",potent dose-dependent inhibition of viral titre; also recorded: completely inhibited virus titre
same,inhibition of RANTES transcripts in lung (in words),RANTES gene,dose-dependent inhibition
same,RANTES gene transcript % Inhibition,RANTES gene; 0.33 mg/mL,−8%
same,"RANTES gene transcript (/β-actin), Median",RANTES gene; 0.33 mg/mL,3.9
same,RANTES gene transcript % Inhibition,RANTES gene; 1.0 mg/mL,36%
same,"RANTES gene transcript (/β-actin), Median",RANTES gene; 1.0 mg/mL,2.3
same,RANTES gene transcript % Inhibition,RANTES gene; 3.3 mg/mL,36%
same,"RANTES gene transcript (/β-actin), Median",RANTES gene; 3.3 mg/mL,2.3
same,RANTES gene transcript % Inhibition,RANTES gene; 10 mg/mL,61%
same,"RANTES gene transcript (/β-actin), Median",RANTES gene; 10 mg/mL,1.4
same,"Virus titre in apical wash, geometric mean",RSV A2 [3]; day 0,0 log PFU/mL
same,"Virus titre in apical wash, geometric mean",RSV A2 [3]; day 1,2.14 log PFU/mL
same,"Virus titre in apical wash, geometric mean",RSV A2 [3]; day 2,3.05 log PFU/mL
same,"Virus titre in apical wash, geometric mean",RSV A2 [3]; day 3,5.18 log PFU/mL
same,"Virus titre in apical wash, geometric mean",RSV A2 [3]; day 4,3.55 log PFU/mL
same,"Virus titre in apical wash, geometric mean",RSV A2 [3]; day 5,3.68 log PFU/mL
same,"Virus titre in apical wash, geometric mean",RSV A2 [3]; day 6,2.24 log PFU/mL
same,"Virus titre in apical wash, geometric mean",RSV A2 [3]; day 7,1.71 log PFU/mL
same,inhibition of virus titre in ALI culture (in words),RSV A2 [3],completely inhibited virus titre
"Cc1cnc(N2CC3(CCOCC3)C2)c(C(=O)Nc2ccc(C(=O)N3CCc4cc(C(=O)Nc5c(F)cccc5Cl)sc4-c4sccc43)cc2)c1 [Example 12, N-(2-chloro-6-fluorophenyl)-4-(4-(5-methyl-2-(7-oxa-2-azaspiro[3.5]nonan-2-yl)nicotinamido)benzoyl)-5,6-dihydro-4H-dithieno[3,2-b:2′,3′-d]azepine-8-carboxamide]",IC50,RSV A2 strain,0.14 nM
same,inhibition at 0.01 µg/mL,RSV A2 strain,84%
same,IC50,RSV B Washington strain,3.1 nM
same,inhibition at 1 µg/mL,RSV B Washington strain,97%
same,CC50 at 5 days,[1],> 13500 nM
same,reduction of virus titre,hRSV/A/Long; intra-nasal dosing at 1 mg/ml,0.7 log
same,"Virus titre in lung, Geometric Mean","hRSV/A/Long; intranasal, 1.0 mg/mL","4.5 log, PFU/lung"
same,"Virus titre in lung, Median","hRSV/A/Long; intranasal, 1.0 mg/mL","4.5 log, PFU/lung"
same,"Virus titre in apical wash, geometric mean",RSV A2 [3]; day 0,0 log PFU/mL
same,"Virus titre in apical wash, geometric mean",RSV A2 [3]; day 1,2.57 log PFU/mL
same,"Virus titre in apical wash, geometric mean",RSV A2 [3]; day 2,4.86 log PFU/mL
same,"Virus titre in apical wash, geometric mean",RSV A2 [3]; day 3,5.27 log PFU/mL
same,"Virus titre in apical wash, geometric mean",RSV A2 [3]; day 4,4.71 log PFU/mL
same,"Virus titre in apical wash, geometric mean",RSV A2 [3]; day 5,3.45 log PFU/mL
same,"Virus titre in apical wash, geometric mean",RSV A2 [3]; day 6,2.62 log PFU/mL
same,"Virus titre in apical wash, geometric mean",RSV A2 [3]; day 7,1.22 log PFU/mL
same,inhibition of virus titre in ALI culture (in words),RSV A2 [3],completely inhibited virus titre
"Cc1cnc(N2CCC3(CCOCC3)CC2)c(C(=O)Nc2ccc(C(=O)N3CCc4cc(C(=O)Nc5c(F)cccc5F)sc4-c4sccc43)cc2)c1 [Example 34, N-(2,6-difluorophenyl)-4-(4-(5-methyl-2-(3-oxa-9-azaspiro[5.5]undecan-9-yl)nicotinamido)benzoyl)-5,6-dihydro-4H-dithieno[3,2-b:2′,3′-d]azepine-8-carboxamide]",IC50,RSV A2 strain,4.4 nM
same,inhibition at 0.01 µg/mL,RSV A2 strain,100%
same,IC50,RSV B Washington strain,> 1330 nM
same,inhibition at 1 µg/mL,RSV B Washington strain,9%
same,CC50 at 5 days,[1],> 13300 nM
